Counter-ions that a name gives are not always drawn. Like-named read-outs stand apart in the source and are kept apart here.
System: C. elegans
Experiment: microbe, parasite or virus in culture
Settings: Caenorhabditis elegans
[1] = 0 h, read-out: Percentage of motility inhibition 0 h, Table S2, C. elegans SS assay, 110 μM, 0 h, averages of 4 data points
[2] = 24 h, read-out: Percentage of motility inhibition 24 h, Table S2, C. elegans SS assay, 110 μM, 24 h, averages of 4 data points
[3] = 0 h, read-out: Percentage of motility inhibition 0 h
[4] = 24 h, read-out: Percentage of motility inhibition 24 h

Row | Structure (SMILES) | inhibition at 110 µM [1] [%] | inhibition at 110 µM [2] [%] | inhibition at 110 µM [3] [%] | inhibition at 110 µM [4] [%]
1 | COc1ccc2[nH]cc(CCNC(C)=O)c2c1 [Melatonin] | 66 | 24 | – | –
2 | CC1=CC(=O)c2ccccc2C1=O [Menadione] | 0 | 0 | – | –
3 | CC(C)[C@@H]1CC[C@@H](C)CC1=O [Menthone] | 17 | 17 | – | –
4 | COc1ccc(O)cc1 [Mequinol] | 16 | 11 | – | –
5 | COc1c2occc2cc2ccc(=O)oc12 [Methoxsalen] | 23 | 5 | – | –
6 | COC(=O)c1ccccc1O [Methyl Salicylate] | 21 | 12 | – | –
7 | COC(=O)[C@]12CCCC(C)(C)[C@@H]1CCc1cc(C(C)C)c(O)c(O)c12 [Methyl carnosate] | 0 | 63 | – | –
8 | COC(=O)c1cccnc1 [Methyl nicotinate] | – | – | 0 | 0
9 | Cc1ncc([N+](=O)[O-])n1CCO [Metronidazole] | 34 | 14 | – | –
10 | C=C1C(=O)O[C@H]2[C@H]1CCC(C)=C1CC[C@@](C)(O)[C@@H]12 [Micheliolide] | 0 | 0 | – | –
11 | CCC(=O)O[C@@H]1CC(=O)O[C@H](C)C/C=C/C=C/[C@H](O)[C@H](C)C[C@H](CC=O)[C@H](O[C@@H]2O[C@H](C)[C@@H](O[C@H]3C[C@@](C)(O)[C@@H](OC(=O)CC)[C@H](C)O3)[C@H](N(C)C)[C@H]2O)[C@H]1OC [Midecamycin] | 16 | 14 | – | –
12 | CC(C)C1=Cc2ccc3c(c2C(=O)C1=O)CCCC3(C)C [Miltirone] | 0 | 36 | – | –
13 | NC(=O)c1ncn([C@@H]2O[C@H](CO)[C@@H](O)[C@H]2O)c1O [Mizoribine] | 28 | 29 | – | –
14 | C[C@H](CC[C@@H](O)C(C)(C)O)[C@H]1CC[C@@]2(C)[C@@H]3CC=C4[C@@H](CC[C@H](O)C4(C)C)[C@]3(C)[C@H](O)C[C@]12C [Mogrol] | 5 | 2 | – | –
15 | COC(=O)c1c2c(c3ccccc3c1O)OC(C)(C)C=C2 [Mollugin] | 1 | 12 | – | –
16 | C[C@H]1C(=O)O[C@@H]2CC[N+]3([O-])CC=C(COC(=O)[C@](C)(O)[C@]1(C)O)[C@H]23 (stereo partly shown) [Monocrotaline N‐Oxide] | 0 | 0 | – | –
17 | COC(=O)/C=C/C(=O)O [Monomethyl fumarate] | 0 | 15 | – | –
18 | O=c1c(O)c(-c2ccc(O)cc2O)oc2cc(O)cc(O)c12 [Morin] | 44 | 17 | – | –
19 | COC(=O)C1=CO[C@@H](O[C@@H]2O[C@H](CO)[C@@H](O)[C@H](O)[C@H]2O)[C@@H]2[C@H](C)O[C@@H](O)C[C@H]12 [Morroniside] | 5 | 42 | – | –
20 | CC(C)=CCc1c(-c2ccc(O)cc2O)oc2c3c(cc(O)c2c1=O)OC(C)(C)C=C3 [Morusin] | 33 | 14 | – | –
21 | C[C@@]12C[C@@]3(O)O[C@@H](O1)[C@]1(COC(=O)c4ccc(O)cc4)[C@@H]3C[C@]12O[C@@H]1O[C@H](COC(=O)c2ccccc2)[C@@H](O)[C@H](O)[C@H]1O [Mudanpioside C] | 23 | 41 | – | –
22 | C/C(=C\C(=O)OCCCCCCCCC(=O)O)C[C@@H]1OC[C@H](C[C@@H]2O[C@H]2[C@@H](C)[C@H](C)O)[C@@H](O)[C@H]1O [Mupirocin] | 10 | 11 | – | –
23 | CCCCC(C#N)(Cn1cncn1)c1ccc(Cl)cc1 (stereo not shown) [Myclobutanil] | 30 | 12 | – | –
24 | c1cncc(C2=NCCC2)c1 [Myosmine] | 18 | 24 | – | –
25 | C=CC(=C)CCC=C(C)C [Myrcene] | 8 | 23 | – | –
26 | O=c1c(O)c(-c2cc(O)c(O)c(O)c2)oc2cc(O)cc(O)c12 [Myricetin] | – | – | 30 | 7

— article PMC11855827, “High-Throughput Screening of Five Compound Libraries for Anthelmintic Activity and Toxicity Leads to the Discovery of Two Flavonoid Compounds” (International Journal of Molecular Sciences, 2025)
